# Data from US12371453B2, “Polypeptide having antibacterial activity, composition for preventing or treating sepsis comprising same, and antibacterial composition” (priority 2019, dated 2025).
# Square brackets hold non-standard residues; d marks the D form. Peptide text beside a SMILES is read from it.
# Assays:
# lipoprotein (LPP) = experiment: LPP binding by ITC analysis; settings: cell wall component of gram-positive bacteria (S. aureus)
# Description: The binding affinity to lipoteichoic acid (LTA) and lipoprotein (LPP), which are cell wall components of gram-positive bacteria (S. aureus), was confirmed through ITC analysis using allD FP13-NH2.
# The binding affinity was confirmed using the ITC analysis method, and the experimental method in Example 1 was applied mutatis mutandis.
# [1] = test system: Acinetobacter baumannii (ATCC 19606); experiment: microbe, parasite or virus in culture; settings: ATCC 19606
# Method: (§1) To compare the antibacterial activity between the four commercially available antibiotics (ampicillin, gentamicin, levofloxacin and imipenem) and the allD FP13-NH2 (AcOH) peptide, an antibacterial activity test was performed to measure the minimum inhibitory concentrations (MIC50 and MIC80) for gram-negative and gram-positive standard strains (Escherichia coli DH5α, Escherichia coli K1, Acinetobacter baumannii, Pseudomonas aeruginosa, Salmonella enteritidis, Salmonella typhimurium, and Klebsiella pneumoniae).
# (§2) More specifically, 100 μL of a medium was dispensed into each well of a 96-well plate, and in the first column, an antibiotic and a peptide in 200 μL of the medium were dispensed. 1/2 serial dilution was performed from columns 1 to 11, and gram-negative and gram-positive bacteria which had been previously cultured were diluted (OD600 nm value in dilution: approximately 0.0025) and dispensed into each well. The plate was incubated in a 37° C. incubator for 4 hours, and measured at OD600 nm.
# [2] = test system: Salmonela enteritidis (ATCC 13076); experiment: microbe, parasite or virus in culture; settings: ATCC 13076
# Method: as §1, §2
# Escherichia coli K1 = experiment: microbe, parasite or virus in culture; settings: K1
# Method: as §1, §2
# [3] = test system: Salmonela typhimurium (ATCC 53648); experiment: microbe, parasite or virus in culture; settings: Salmonella typhimurium ATCC 53648
# Method: as §1, §2
# [4] = test system: Escherichia coli DH5α (ATCC PTA-4750); experiment: microbe, parasite or virus in culture; settings: Escherichia coli DH5α, 4 hours
# Method: as §1, §2
# [5] = test system: Pseudomanas aeruginosa PAO1 (ATCC 47085D-5); experiment: microbe, parasite or virus in culture; settings: PAO1
# Method: as §1, §2
# [6] = test system: Klebiella pneumoniae (ATCC 13883); experiment: microbe, parasite or virus in culture; settings: ATCC 13883
# Method: as §1, §2
compound,measurement,setting,value
CC(C)C[C@@H](NC(=O)[C@H](N)CCCCN)C(=O)N[C@H](CCCNC(=N)N)C(=O)N[C@@H](C(=O)N[C@H](CCCCN)C(=O)N[C@H](CC(C)C)C(=O)N[C@H](CCCNC(=N)N)C(=O)N[C@H](CCCNC(=N)N)C(=O)N[C@H](Cc1ccc(O)cc1)C(=O)N[C@H](CC(C)C)C(=O)N[C@H](CCCNC(=N)N)C(N)=O)C(C)C [allD FP13-NH2] (H-[dK][dL][dR][dV][dK][dL][dR][dR][dY][dL][dR]-NH2; N-terminus assumed),binding to LPP (ITC),lipoprotein (LPP),binds
same,MIC (μg/ml) 50%,[1],<4.0 µg/mL
same,MIC (μg/ml) 80%,[1],<8.0 µg/mL
same,MIC (μg/ml) 50%,[2],<1.0 µg/mL
same,MIC (μg/ml) 80%,[2],<2.0 µg/mL
same,MIC (μg/ml) 50%,Escherichia coli K1,<2.0 µg/mL
same,MIC (μg/ml) 80%,Escherichia coli K1,<4.0 µg/mL
same,MIC (μg/ml) 50%,[3]; 50% growth inhibition,<2.0 µg/mL
same,MIC (μg/ml) 80%,[3]; 80% growth inhibition,<4.0 µg/mL
same,MIC (μg/ml) 50%,[4]; 50% growth inhibition,<1.0 µg/mL
same,MIC (μg/ml) 80%,[4]; 80% growth inhibition,<2.0 µg/mL
same,MIC (μg/ml) 50%,[5],<0.5 µg/mL
same,MIC (μg/ml) 80%,[5],<1.0 µg/mL
same,MIC (μg/ml) 50%,[6],<0.5 µg/mL
same,MIC (μg/ml) 80%,[6],<1.0 µg/mL
